From PubChem BioAssay AID330 (DTP/NCI, 2004) come the findings set out here.

In this test the test system is P388 leukemia ip, CD2F1 mice, survival T/C. Nature of the test: NCI In Vivo Anticancer Drug Screen. Data for tumor model P388 Leukemia (intraperitoneal) in CD2F1 (CDF1) mice. The following applies: endpoint: median survival time, higher = longer survival. Summed up: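 Mice carrying the transplanted tumor received test compound or vehicle. Survival was recorded in each group, and the value is the treated-group measurement divided by that of the vehicle-treated control group.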

Where [1] appears, read: dose: 100.0 mg/kg/injection, schedule: Q04DX003 (ip), vehicle: saline with Tween-80.
[2] abbreviates: dose: 50.0 mg/kg/injection, schedule: Q01DX005 (ip), vehicle: saline with Tween-80.
Setting [3] is: dose: 100.0 mg/kg/injection, schedule: Q01DX005 (ip), vehicle: saline with Tween-80.
Setting [4] is: dose: 200.0 mg/kg/injection, schedule: Q01DX005 (ip), vehicle: saline with Tween-80.
Setting [5] is: dose: 50.0 mg/kg/injection, schedule: Q01DX009 (ip), vehicle: saline.
Setting [6] is: dose: 50.0 mg/kg/injection, schedule: Q01DX009 (ip), vehicle: Klucel (hydroxypropylcellulose) (HPC).
Where [7] appears, read: dose: 200.0 mg/kg/injection, schedule: Q01DX009 (ip), vehicle: Klucel (hydroxypropylcellulose) (HPC).
Setting [8] is: dose: 12.5 mg/kg/injection, schedule: Q01DX009 (ip), vehicle: other.
Setting [9] is: dose: 25.0 mg/kg/injection, schedule: Q01DX009 (ip), vehicle: other.
Where [10] appears, read: dose: 50.0 mg/kg/injection, schedule: Q01DX009 (ip), vehicle: other.
Where [11] appears, read: dose: 60.0 mg/kg/injection, schedule: Q01DX005 (ip), vehicle: saline with Tween-80.
Setting [12] is: dose: 120.0 mg/kg/injection, schedule: Q01DX005 (ip), vehicle: saline with Tween-80.
The mark [13] stands for this setting: dose: 240.0 mg/kg/injection, schedule: Q01DX005 (ip), vehicle: saline with Tween-80.
Where [14] appears, read: dose: 50.0 mg/kg/injection, schedule: Q01DX005 (ip), vehicle: Klucel (hydroxypropylcellulose) (HPC).
Setting [15] is: dose: 100.0 mg/kg/injection, schedule: Q01DX005 (ip), vehicle: Klucel (hydroxypropylcellulose) (HPC).
The mark [16] stands for this setting: dose: 200.0 mg/kg/injection, schedule: Q01DX005 (ip), vehicle: Klucel (hydroxypropylcellulose) (HPC).
[17] abbreviates: dose: 12.5 mg/kg/injection, schedule: Q01DX009 (ip), vehicle: saline with Tween-80.
The mark [18] stands for this setting: dose: 25.0 mg/kg/injection, schedule: Q01DX009 (ip), vehicle: saline with Tween-80.
The mark [19] stands for this setting: dose: 50.0 mg/kg/injection, schedule: Q01DX009 (ip), vehicle: saline with Tween-80.
The mark [20] stands for this setting: dose: 200.0 mg/kg/injection, schedule: Q01DX009 (ip), vehicle: saline with Tween-80.

Where “and” joins values, the source holds several entries; their conditions need not be identical. Equal entries are not always repeated. Inconclusive results and toxic doses are left out.

`COc1ccc(CCNC(=O)CC2CCN(C)CC2)cc1OC`: the T/C under setting [1] was 101 % of control and the T/C (dose: 200.0 mg/kg/injection, schedule: Q04DX003 (ip), vehicle: saline with Tween-80) was 100 % of control.
In the case of `c1ccc2c(c1)ccc1cccnc12`, the T/C is, setting by setting: under setting [2], 93 % of control; under setting [3], 93 % of control; under setting [4], 102 % of control.
With `O=S(=O)(O)c1ccc(N=Nc2c(S(=O)(=O)O)cc3cc(S(=O)(=O)O)cc(O)c3c2O)cc1`, the T/C runs as follows: under setting [5], 93 % of control; (dose: 100.0 mg/kg/injection, schedule: Q01DX009 (ip), vehicle: saline) 99 % of control; (dose: 200.0 mg/kg/injection, schedule: Q01DX009 (ip), vehicle: saline) 106 % of control.
Turning to `C[N+]1=C(/C=C/Nc2cc3c4ccccc4ccc3c3ccccc23)C(C)(C)c2ccccc21`, the T/C under setting [6] is 117 % of control; the T/C (dose: 100.0 mg/kg/injection, schedule: Q01DX009 (ip), vehicle: Klucel (hydroxypropylcellulose) (HPC)) was 119 % of control; the T/C under setting [7] was 117 % of control.
Turning to `CCN(CC)C1C(Br)c2ccccc2C(OC)N1C#N` (stereo unspecified), the T/C reads like this: (dose: 50.0 mg/kg/injection, schedule: Q01DX005 (ip), vehicle: distilled water + Tween-80 + alcohol) 103 % of control; (dose: 100.0 mg/kg/injection, schedule: Q01DX005 (ip), vehicle: distilled water + Tween-80 + alcohol) 107 % of control.
Regarding `[O-][n+]1c(-c2ccccc2)c(Cl)c(-c2ccccc2)n1O`, the T/C is 99 % of control (dose: 1.5 mg/kg/injection, schedule: Q01DX005 (ip), vehicle: Klucel + Tween-80); 100 % of control (dose: 3.0 mg/kg/injection, schedule: Q01DX005 (ip), vehicle: Klucel + Tween-80); 96 % of control (dose: 6.0 mg/kg/injection, schedule: Q01DX005 (ip), vehicle: Klucel + Tween-80); 98 % of control (dose: 60.0 mg/kg/injection, schedule: Q01DX005 (ip), vehicle: Klucel + Tween-80).
With `O=C(Nc1ccc(NC2=NCCN2)cc1)c1cc(Cl)cc(C(=O)Nc2ccc(NC3=NCCN3)cc2)c1`, the T/C (dose: 12.5 mg/kg/injection, schedule: Q01DX005 (ip), vehicle: Klucel (hydroxypropylcellulose) (HPC)) is 98 % of control and the T/C (dose: 25.0 mg/kg/injection, schedule: Q01DX005 (ip), vehicle: Klucel (hydroxypropylcellulose) (HPC)) was 102 % of control.
On to `Nc1nc(N)nc(NCCSSCCNc2nc(N)nc(N)n2)n1`, for which the T/C is, setting by setting: under setting [8], 97 % of control; under setting [9], 102 % of control; under setting [10], 104 % of control and 86 % of control.
Regarding `O=C(C(=O)C(Br)Br)C(Br)Br`, the T/C is, setting by setting: (dose: 1.56 mg/kg/injection, schedule: Q01DX009 (ip), vehicle: DMSO) 99 % of control; (dose: 3.12 mg/kg/injection, schedule: Q01DX009 (ip), vehicle: DMSO) 103 % of control; (dose: 6.25 mg/kg/injection, schedule: Q01DX009 (ip), vehicle: DMSO) 99 % of control.
Regarding `CCCOC(=O)C1C2CCC(O2)C1C(=O)O` (stereo unspecified), the T/C was 106 % of control (dose: 6.25 mg/kg/injection, schedule: Q01DX005 (ip), vehicle: saline) and 103 % of control (dose: 12.5 mg/kg/injection, schedule: Q01DX005 (ip), vehicle: saline).
Turning to `O/N=C(\c1ccccc1)C1c2ccccc2-c2ccccc21`, the T/C was 94 % of control under setting [11], 94 % of control under setting [12] and 94 % of control under setting [13].
`CCC[CH2][Sn]([CH3])([CH3])[CH2]CC[N+](C)(C)C`: the T/C is 95 % of control (dose: 12.5 mg/kg/injection, schedule: Q01DX009 (ip), vehicle: saline); 98 % of control (dose: 25.0 mg/kg/injection, schedule: Q01DX009 (ip), vehicle: saline); 96 % of control under setting [5].
With `C/C(CC(N)=O)=C1\C(=O)NN(c2ccccc2)C1=O`, the T/C runs as follows: under setting [11], 108 % of control; under setting [12], 110 % of control; under setting [13], 114 % of control.
For the molecule `COc1cc2c(c3c1c(=S)c1ccccc1n3C)C=CC(C)(C)O2`, the T/C runs as follows: under setting [14], 98 % of control; under setting [15], 98 % of control; under setting [16], 108 % of control.
Turning to `CC(C)(C)C1CCC(P(C)(C)=S)CC1` (stereo unspecified), the T/C by setting is: (dose: 12.5 mg/kg/injection, schedule: Q01DX009 (ip), vehicle: Klucel (hydroxypropylcellulose) (HPC)) 99 % of control; (dose: 25.0 mg/kg/injection, schedule: Q01DX009 (ip), vehicle: Klucel (hydroxypropylcellulose) (HPC)) 114 % of control; under setting [6], 94 % of control; under setting [7], 97 % of control.
With `NNS(=O)(=O)c1cccc(S(=O)(=O)NN)c1`, the T/C was 96 % of control under setting [8], 96 % of control under setting [9] and 99 % of control under setting [10].
Regarding `C=CCc1cc(Nc2c3ccc(Cl)cc3nc3ccc(OC)cc23)cc(CN(CC)CC)c1O`, the T/C by setting is: (dose: 3.12 mg/kg/injection, schedule: Q01DX005 (ip), vehicle: Klucel (hydroxypropylcellulose) (HPC)) 106 % of control and 110 % of control; (dose: 6.0 mg/kg/injection, schedule: Q01DX005 (ip), vehicle: Klucel (hydroxypropylcellulose) (HPC)) 118 % of control; (dose: 6.25 mg/kg/injection, schedule: Q01DX005 (ip), vehicle: Klucel (hydroxypropylcellulose) (HPC)) 109 % of control and 110 % of control; (dose: 12.0 mg/kg/injection, schedule: Q01DX005 (ip), vehicle: Klucel (hydroxypropylcellulose) (HPC)) 123 % of control.
For `O=C1C(=O)c2ccccc2C(O)=C1Sc1ccc2ccccc2c1`, the T/C (dose: 3.13 mg/kg/injection, schedule: Q01DX009 (ip), vehicle: saline with Tween-80) is 100 % of control; the T/C (dose: 6.25 mg/kg/injection, schedule: Q01DX009 (ip), vehicle: saline with Tween-80) is 99 % of control; the T/C under setting [17] is 95 % of control.
Consider `CCCCCCOC(=O)c1ccccc1NC(=O)NN1CCCCCC1`, for which the T/C reads like this: under setting [14], 100 % of control; under setting [15], 102 % of control; under setting [16], 100 % of control.
For the molecule `O=C1CSCC(=O)OCCOCCOCCOCCO1`, the T/C (dose: 100.0 mg/kg/injection, schedule: Q04DX003 (ip), vehicle: saline) is 100 % of control; the T/C (dose: 200.0 mg/kg/injection, schedule: Q04DX003 (ip), vehicle: saline) is 101 % of control; the T/C (dose: 400.0 mg/kg/injection, schedule: Q04DX003 (ip), vehicle: saline) was 100 % of control.
On to `COc1ccc(Cc2cc3c(cc2OCC(=O)O)OCO3)cc1`, for which the T/C is, setting by setting: under setting [2], 97 % of control; under setting [3], 100 % of control; under setting [4], 93 % of control.
`CN1CCN(CCCN2c3ccccc3Sc3ccc(C(F)(F)F)cc32)CC1`: the T/C is 109 % of control under setting [18]; 118 % of control under setting [19]; 163 % of control (dose: 66.0 mg/kg/injection, schedule: Q04DX003 (ip), vehicle: saline with Tween-80); 150 % of control under setting [1].
With `OC1(C#Cc2ccccc2)c2ccccc2C(O)(C#Cc2ccccc2)c2c(C#Cc3ccccc3)cccc21` (stereo unspecified), the T/C by setting is: under setting [17], 87 % of control; under setting [18], 95 % of control; under setting [19], 97 % of control; under setting [20], 86 % of control.
`CCCCCCCCCCCC(=O)OCCN(CCOC(=O)CCCCCCCCCCC)C(=O)c1ccccc1`: the T/C is 95 % of control under setting [19]; 100 % of control (dose: 100.0 mg/kg/injection, schedule: Q01DX009 (ip), vehicle: saline with Tween-80); 93 % of control under setting [20].
Regarding `CC(=O)OCC1OC(OC2C=C(O[Si](C)(C)C)C[C@H]3C(=O)C=CC(=O)[C@@H]23)C(OC(C)=O)C(OC(C)=O)C1OC(C)=O` (stereo partly specified), the T/C (dose: 7.5 mg/kg/injection, schedule: Q01DX005 (ip), vehicle: saline with Tween-80) was 98 % of control; the T/C (dose: 15.0 mg/kg/injection, schedule: Q01DX005 (ip), vehicle: saline with Tween-80) is 98 % of control; the T/C under setting [11] was 98 % of control and 102 % of control.
